Data set [1] deals with T1, Arginase-1 (Homo sapiens, UniProt P05089).
T1 sequence (P05089 whole entry): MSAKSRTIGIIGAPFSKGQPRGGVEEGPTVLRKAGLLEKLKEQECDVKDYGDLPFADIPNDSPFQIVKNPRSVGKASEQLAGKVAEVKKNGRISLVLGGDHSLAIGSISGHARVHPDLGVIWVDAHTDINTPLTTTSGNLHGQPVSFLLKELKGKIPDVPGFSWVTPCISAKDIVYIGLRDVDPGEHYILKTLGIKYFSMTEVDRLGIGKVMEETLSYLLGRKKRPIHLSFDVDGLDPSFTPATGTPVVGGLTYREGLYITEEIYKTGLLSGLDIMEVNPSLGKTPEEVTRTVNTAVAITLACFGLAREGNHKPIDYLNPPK
Description: Inhibition of recombinant human Arg1 extracted from Escherichia coli incubated for 30 mins by Ellman's method.

Data set [2] addresses T2, Arginase-2, mitochondrial (Homo sapiens, UniProt P78540).
T2 sequence (P78540 whole entry): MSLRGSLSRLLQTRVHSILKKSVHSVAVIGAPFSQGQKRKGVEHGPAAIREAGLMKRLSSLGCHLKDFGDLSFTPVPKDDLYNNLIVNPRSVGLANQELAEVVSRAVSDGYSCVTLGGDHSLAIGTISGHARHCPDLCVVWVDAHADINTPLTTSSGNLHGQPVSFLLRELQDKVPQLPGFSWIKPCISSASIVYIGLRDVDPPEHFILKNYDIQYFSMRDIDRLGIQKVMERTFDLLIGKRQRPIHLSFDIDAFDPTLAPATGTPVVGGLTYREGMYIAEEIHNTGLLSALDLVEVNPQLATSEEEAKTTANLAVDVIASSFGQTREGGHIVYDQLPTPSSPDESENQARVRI
As to the kind of experiment: Inhibition of recombinant human Arg2 extracted from Escherichia coli incubated for 30 mins by Ellman's method. On the technique in general: In Ellman's method for cholinesterases, released thiocholine reacts with DTNB.

Data set [3] in a line: Oral availability in rat. To be noted: in vivo. The class given is ADME.
Data set [4] has as its target T1, Arginase-1. As to the kind of experiment: Inhibition of Arg1 (unknown origin).
A short description of data set [5]: Prodrug conversion in rat assessed as oral bioavailability of (2S,3S)-2-amino-3-(aminomethyl)-6-boronohexanoic acid metabolite. In kind it is ADME, organism-based. To be noted: in vivo.
In data set [6] the target is T3, Arginase-1 (Homo sapiens) (UniProt P05089).
T3 sequence (whole entry): T1 sequence (P05089 whole entry)
As to the kind of experiment: Potency index, ratio of ABH IC50 to test compound IC50 for recombinant human Arg1 extracted from Escherichia coli incubated for 30 mins by Ellman's method.

Here are results for 30 molecules from ChEMBL document CHEMBL6074666, “Design and Synthesis of Acyclic Boronic Acid Arginase Inhibitors” (J Med Chem, 2024).

Broadly, the IC50 is the point on the concentration scale where inhibition reaches its midpoint. As usually defined, the bioavailability is dose-corrected exposure relative to a reference, in per cent. Lower therefore signals little systemic uptake.

Take `CNC(=O)[C@H](CCCB(O)O)[C@H](N)C(=O)O`: the IC50 in data set [1] was 34.2 µM; in data set [2] it was > 100 µM.

`CC(C)(C)[C@H](N)C(=O)NC[C@H](CCCB(O)O)[C@H](N)C(=O)O`: the bioavailability in data set [3] was found to be 19%. Moreover, the IC50 in data set [1] came to 32 µM.

Take `N[C@@H](CCCCB(O)O)C(=O)O`: 0.47 µM corresponded to half-maximal inhibition in data set [4] (IC50).

In turn, `C[C@H](N)C(=O)NC[C@@H](CCCB(O)O)[C@H](N)C(=O)O` gave a bioavailability in data set [3] of 10%. The IC50 in data set [1] came to 157 µM.

In data set [3], `CC[C@H](C)[C@H](N)C(=O)NC[C@H](CCCB(O)O)[C@H](N)C(=O)O` returned a bioavailability of 4.5%. Besides, in data set [1], the half-inhibitory concentration (IC50) turned out to be 33 µM. The F in data set [5] came out at 39%.

Regarding `COC[C@H](CCCB(O)O)[C@H](N)C(=O)O`, the concentration for half-maximal inhibition (IC50) in data set [1] is 4.12 µM; in data set [2] it was 6.75 µM.

As to `N[C@H](C(=O)O)[C@@H](N)CCCB(O)O`, the half-maximal inhibitory concentration (IC50) worked out at 74 µM in data set [1] and 96.8 µM in data set [2].

For `COC[C@@H](CCCB(O)O)[C@H](N)C(=O)O`, the IC50 in data set [1] stood at 10.9 µM; in data set [2], 18.7 µM.

For `CNC[C@@H](CCCB(O)O)[C@H](N)C(=O)O`, the half-maximal inhibitory concentration (IC50) in data set [2] stood at 1.93 µM.

Take `CC(C)[C@H](N)C(=O)NC[C@@H](CCCB(O)O)[C@H](N)C(=O)O`: the bioavailability in data set [3] amounted to 29%. The IC50 in data set [1] turned out to be 145 µM. Further, the F in data set [5] is reported as 56%.

On to `C[C@H](N)C(=O)N[C@H](C(=O)O)[C@H](CN)CCCB(O)O`, for which the IC50 in data set [1] was found to be 68 µM. Besides, the F in data set [5] is reported as 66%.

For the molecule `C[C@H](N)C(=O)NC[C@H](CCCB(O)O)[C@H](N)C(=O)O`, the bioavailability in data set [3] came out at 5.1%. Also, the IC50 in data set [1] amounted to 12 µM. For the same molecule, the Ratio IC50 in data set [6] came out at 40. The F in data set [5] amounted to 55%.

As for `NCC[C@@H](CCCB(O)O)[C@H](N)C(=O)O`, in data set [2], the IC50 was 0.625 µM.

For `N=C(N)NC[C@@H](CCCB(O)O)[C@H](N)C(=O)O`, the figures for the IC50 in data set [1] and in data set [2] were 0.22 µM and 0.534 µM, respectively.

`CC[C@H](N)C(=O)NC[C@H](CCCB(O)O)[C@H](N)C(=O)O` gave a bioavailability in data set [3] of 1.5%. The IC50 in data set [1] is 25 µM. Moreover, the F in data set [5] came out at 72%.

For `N[C@H](C(=O)O)[C@@H](CF)CCCB(O)O`, the results for the IC50 in data set [1] and in data set [2] were 4.23 µM and 6.08 µM, respectively.

Consider `CNC(=O)[C@@H](CCCB(O)O)[C@H](N)C(=O)O`, for which, in data set [1], the IC50 was > 100 µM.

Turning to `N[C@H](C(=O)O)[C@H](CCCB(O)O)CN1CCCCC1`, the IC50 in data set [2] was found to be 17.4 µM.

Regarding `NC(=O)[C@H](CCCB(O)O)[C@H](N)C(=O)O`, the 50% inhibitory concentration (IC50) was 19.2 µM in data set [1] and 41.8 µM in data set [2].

With `NC[C@@H](CCCB(O)O)[C@H](N)C(=O)O`, in data set [3], the bioavailability was 17%.

In the case of `COC(=O)[C@@H](CCCB(O)O)[C@H](N)C(=O)O`, the 50% inhibitory concentration (IC50) in data set [1] and in data set [2] was > 100 µM throughout.

`NC(=O)NC[C@@H](CCCB(O)O)[C@H](N)C(=O)O`: in data set [2], the IC50 amounted to 5.18 µM.

`NCC(=O)NC[C@H](CCCB(O)O)[C@H](N)C(=O)O` returned a bioavailability in data set [3] of 6.3%. For the same molecule, the IC50 in data set [1] turned out to be 21 µM. Further, the F in data set [5] is 13%.

Turning to `COC(=O)[C@H](CCCB(O)O)[C@H](N)C(=O)O`, the IC50 in data set [1] stood at 18.5 µM; in data set [2], 51.9 µM.

Regarding `C[C@H](N)C(=O)N[C@H](C(=O)O)[C@@H](CN)CCCB(O)O`, the F in data set [5] is reported as 16%.

In turn, `NC[C@H](CCCB(O)O)[C@H](N)C(=O)O` registered a bioavailability in data set [3] of 11%. Further, in data set [2], the IC50 was 0.224 µM.

Regarding `CC(C)[C@H](N)C(=O)N[C@H](C(=O)O)[C@H](CN)CCCB(O)O`, the F in data set [5] came out at 31%.

`N[C@H](C(=O)O)[C@H](CF)CCCB(O)O`: the half-inhibitory concentration (IC50) in data set [1] is 0.655 µM; in data set [2], 1.88 µM.

Take `NC(=O)[C@@H](CCCB(O)O)[C@H](N)C(=O)O`: the half-inhibitory concentration (IC50) in data set [1] and in data set [2] was > 100 µM throughout.

In the case of `CC(C)[C@H](N)C(=O)NC[C@H](CCCB(O)O)[C@H](N)C(=O)O`, the bioavailability in data set [3] worked out at 8.3%. In addition, the IC50 in data set [1] came out at 43 µM. Besides, the F in data set [5] was found to be 41%.
